Source: publication PMC9097471, “Development of Selective Phosphatidylinositol 5-Phosphate 4-Kinase γ Inhibitors with a Non-ATP-competitive, Allosteric Binding Mode” (Journal of Medicinal Chemistry, 2022)
pIC50: −log10 of the molar value. Converted amounts (≈) assume the structure as drawn.

Assays:
[1] = Liver microsomal stability; type: in vitro ADME; conditions: liver microsomes; Human liver microsomal hepatic stability; read-out: HLM t1/2
Plasma protein binding = type: in vitro ADME; conditions: Mouse plasma protein binding; read-out: mPPB (converted)
Description: Plasma protein binding analysis was performed by Charles River Laboratories Inc. (ADME-SOP-90). Briefly, compounds in DMSO (10 µM, 0.5% DMSO final) were added to mouse plasma and dialysed against buffer for 4 hours at 37 °C. The compound concentration in each of the plasma and buffer compartments was determined by mass spectrometry and used to calculate the percentage compound bound. […]

Caco-2 cell permeability = type: in vitro ADME; conditions: human; for Papp A→B at 1 h, 10 µM: Caco-2, apical-to-basolateral; for efflux ratio at 1 h, 10 µM: Caco-2 efflux ratio (B-A/A-B), read-out: ER
Description: Permeability: bi-directional Caco-2 cell permeability was performed by Charles River Laboratories Inc. (ADME-SOP-49). Briefly, compounds were administered at 10 µM (1% DMSO final) to the apical or basolateral side of a polarised Caco-2 cell monolayer, then incubated at 37 °C for 60 minutes before appearance on the opposite side of the monolayer was determined by mass spectrometry. The efflux ratio (ER) is calculated from the ratio of B-A […]

Kinetic solubility = type: physicochemical; conditions: PBS buffer, PBS pH 7.4
Description: Kinetic solubility analysis was performed by Charles River Laboratories Inc. (ADME-SOP-01). Compound in
DMSO at 10 mM was diluted to 200 µM in both DMSO and buffer (0.1 M PBS, pH 7.4, 2% DMSO final), and
an aliquot of the 200 µM DMSO solution was diluted to 10 µM, and all dilutions were equilibrated for 2 hours. […]
Compound 9 was purchased from Am binter (Amb16536894) and was determined by UPLC to have purity >95%.
All other compounds were synthesised as described below , and all tested compounds have purity >95% by UPLC

[2] = Chromatographic LogD (HPLC method); type: physicochemical; conditions: pH 7.4, read-out: mchrom log D7.4
Description: 5-100% gradient of MeCN in 50mM NH4OAc in H 2O adjusted to pH 7.4. […]

PI5P4Kα = target: T1, PI5P4Kα (Homo sapiens, UniProt P48426); assay: Adapta TR-FRET assay (Thermo Fisher); type: biochemical; parameters: purchased Thermo Fisher
T1 sequence (P48426 1-406): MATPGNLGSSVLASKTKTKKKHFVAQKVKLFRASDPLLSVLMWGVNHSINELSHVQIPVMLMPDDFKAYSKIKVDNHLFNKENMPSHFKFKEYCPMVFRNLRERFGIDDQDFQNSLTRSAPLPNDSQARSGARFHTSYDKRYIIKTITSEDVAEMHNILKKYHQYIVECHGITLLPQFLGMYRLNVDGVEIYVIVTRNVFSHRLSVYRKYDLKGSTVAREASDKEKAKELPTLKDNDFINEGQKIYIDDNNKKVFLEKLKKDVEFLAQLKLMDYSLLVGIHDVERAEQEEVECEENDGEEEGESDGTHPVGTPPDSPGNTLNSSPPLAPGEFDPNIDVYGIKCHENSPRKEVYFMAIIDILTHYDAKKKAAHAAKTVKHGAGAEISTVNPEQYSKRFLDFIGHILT
Description: Table S7. PI5P4Kα adapta assay results for compounds 1 and 40.a
Compound PI5P4Kα adapta IC50 (nM) […]
a The experiments were run by Thermo Fisher. This assay is a TR-FRET based assay using an Eu-anti-ADP antibody, the conditions are: the 2X PIP4Kα/PI(5)P mixture is prepared in 50 mM HEPES pH 7.5, 0.1% CHAPS, 1 mM EGTA, 4 mM MgCl2. The final 10 μL Kinase Reaction consists of 1.5 - 6 ng PIP4Kα and 50 μM PI(5)P in 32.5 mM HEPES pH 7.5, 0.05% CHAPS, 0.5 mM EGTA, 2 mM MgCl2. After the 1 hour Kinase Reaction incubation, 5 μL of Detection Mix is added. The Detection mix consists of EDTA (30mM), Eu-anti-ADP antibody (6 nM) and ADP tracer in TR-FRET buffer. The detection mix contains the EC60 concentration of tracer for 5-

PI5P4Kβ-WT = target: T2, PI5P4Kβ-WT (Homo sapiens, UniProt P78356); assay: ADP-Glo inhibition assay; conditions: ADP-Glo
T2 sequence (P78356 1-416): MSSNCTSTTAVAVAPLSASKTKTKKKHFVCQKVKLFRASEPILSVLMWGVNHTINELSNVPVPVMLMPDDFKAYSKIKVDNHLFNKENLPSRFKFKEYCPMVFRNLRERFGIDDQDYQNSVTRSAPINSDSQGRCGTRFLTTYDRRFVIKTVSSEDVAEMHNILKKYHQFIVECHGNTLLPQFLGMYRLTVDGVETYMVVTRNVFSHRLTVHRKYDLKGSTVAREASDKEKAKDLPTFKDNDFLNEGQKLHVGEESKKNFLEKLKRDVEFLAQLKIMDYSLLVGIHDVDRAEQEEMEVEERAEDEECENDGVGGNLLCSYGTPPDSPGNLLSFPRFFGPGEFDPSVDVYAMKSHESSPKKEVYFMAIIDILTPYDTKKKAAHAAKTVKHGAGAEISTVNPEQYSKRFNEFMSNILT
Description: To enable direct comparisons, Promega’s ADP-Glo reporter assay was developed using a mutant form of the kinase. […] To mitigate concerns about being misled by the use of the PI5P4Kγ+ construct and the possible introduction of PI5P4Kα activity into the molecules, our screening cascade included the measurement of ADP-Glo activity at PI5P4Kα-WT (and PI5P4Kβ-WT to fully understand emerging selectivity profiles).

MKK1 = MKK1 (Homo sapiens, UniProt Q02750); assay: Kinase panel, radiometric 33P filter binding; conditions: read-out: % activity remaining
JNK1 = JNK1 (Homo sapiens, UniProt P45983); assay: Kinase panel, radiometric 33P filter binding; conditions: read-out: % activity remaining
Description: (§1) filter binding assay using 33P-g-ATPat the MRC PPU International Centre for Kinase Profiling, University of

JNK2 = JNK2 (Homo sapiens, UniProt P45984); assay: Kinase panel, radiometric 33P filter binding; conditions: read-out: % activity remaining
Description: as §1

PDK1 = PDK1 (Homo sapiens, UniProt O15530); assay: Kinase panel, radiometric 33P filter binding; conditions: read-out: % activity remaining
Description: as §1

MARK4 = MARK4 (Homo sapiens, UniProt Q96L34); assay: Kinase panel, radiometric 33P filter binding; conditions: read-out: % activity remaining
Description: as §1

DYRK1A = DYRK1A (Homo sapiens, UniProt Q13627); assay: Kinase panel, radiometric 33P filter binding; conditions: read-out: % activity remaining
Description: as §1

HIPK1 = HIPK1 (Homo sapiens, UniProt Q86Z02); assay: Kinase panel, radiometric 33P filter binding; conditions: read-out: % activity remaining
Description: as §1

MINK1 = MINK1 (Homo sapiens, UniProt Q8N4C8); assay: Kinase panel, radiometric 33P filter binding; conditions: read-out: % activity remaining
Description: as §1

CSK = CSK (Homo sapiens, UniProt P41240); assay: Kinase panel, radiometric 33P filter binding; conditions: read-out: % activity remaining
CSK, sequence (P41240 whole entry): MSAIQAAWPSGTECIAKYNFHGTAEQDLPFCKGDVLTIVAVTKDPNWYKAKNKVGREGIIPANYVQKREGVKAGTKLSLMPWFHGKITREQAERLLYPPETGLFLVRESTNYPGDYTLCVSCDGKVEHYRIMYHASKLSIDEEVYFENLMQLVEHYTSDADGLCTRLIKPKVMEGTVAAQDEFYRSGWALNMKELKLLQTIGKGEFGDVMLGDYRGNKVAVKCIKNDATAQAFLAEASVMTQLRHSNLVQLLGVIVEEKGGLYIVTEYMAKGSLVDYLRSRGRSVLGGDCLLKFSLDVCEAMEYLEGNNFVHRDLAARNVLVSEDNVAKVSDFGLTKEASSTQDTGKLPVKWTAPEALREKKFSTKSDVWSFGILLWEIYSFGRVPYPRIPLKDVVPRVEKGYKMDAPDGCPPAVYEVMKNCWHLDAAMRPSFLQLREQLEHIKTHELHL

JNK2, sequence (P45984 whole entry): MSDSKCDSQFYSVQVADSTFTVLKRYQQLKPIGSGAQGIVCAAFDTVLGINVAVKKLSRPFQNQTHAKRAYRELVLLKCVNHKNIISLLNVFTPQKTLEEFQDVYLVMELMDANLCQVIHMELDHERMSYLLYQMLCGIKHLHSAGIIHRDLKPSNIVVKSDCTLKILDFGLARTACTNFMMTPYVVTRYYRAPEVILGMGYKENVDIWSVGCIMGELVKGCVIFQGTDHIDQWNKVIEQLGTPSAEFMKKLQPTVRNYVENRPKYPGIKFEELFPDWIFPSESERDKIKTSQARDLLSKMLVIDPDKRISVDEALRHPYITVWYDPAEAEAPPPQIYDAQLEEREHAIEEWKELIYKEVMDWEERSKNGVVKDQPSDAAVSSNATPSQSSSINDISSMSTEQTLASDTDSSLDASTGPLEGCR
JNK1, sequence (P45983 whole entry): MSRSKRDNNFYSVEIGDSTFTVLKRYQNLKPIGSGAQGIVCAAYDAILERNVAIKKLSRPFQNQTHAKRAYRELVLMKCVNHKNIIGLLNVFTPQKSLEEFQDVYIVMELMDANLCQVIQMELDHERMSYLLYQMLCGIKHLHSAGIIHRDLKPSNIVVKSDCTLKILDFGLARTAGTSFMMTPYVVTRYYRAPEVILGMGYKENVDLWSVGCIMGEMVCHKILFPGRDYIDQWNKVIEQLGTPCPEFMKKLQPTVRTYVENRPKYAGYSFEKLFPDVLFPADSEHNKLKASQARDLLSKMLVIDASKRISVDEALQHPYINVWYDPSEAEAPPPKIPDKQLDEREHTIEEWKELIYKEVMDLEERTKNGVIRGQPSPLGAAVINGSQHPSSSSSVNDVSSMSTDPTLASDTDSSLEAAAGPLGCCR
MINK1, sequence (Q8N4C8 whole entry): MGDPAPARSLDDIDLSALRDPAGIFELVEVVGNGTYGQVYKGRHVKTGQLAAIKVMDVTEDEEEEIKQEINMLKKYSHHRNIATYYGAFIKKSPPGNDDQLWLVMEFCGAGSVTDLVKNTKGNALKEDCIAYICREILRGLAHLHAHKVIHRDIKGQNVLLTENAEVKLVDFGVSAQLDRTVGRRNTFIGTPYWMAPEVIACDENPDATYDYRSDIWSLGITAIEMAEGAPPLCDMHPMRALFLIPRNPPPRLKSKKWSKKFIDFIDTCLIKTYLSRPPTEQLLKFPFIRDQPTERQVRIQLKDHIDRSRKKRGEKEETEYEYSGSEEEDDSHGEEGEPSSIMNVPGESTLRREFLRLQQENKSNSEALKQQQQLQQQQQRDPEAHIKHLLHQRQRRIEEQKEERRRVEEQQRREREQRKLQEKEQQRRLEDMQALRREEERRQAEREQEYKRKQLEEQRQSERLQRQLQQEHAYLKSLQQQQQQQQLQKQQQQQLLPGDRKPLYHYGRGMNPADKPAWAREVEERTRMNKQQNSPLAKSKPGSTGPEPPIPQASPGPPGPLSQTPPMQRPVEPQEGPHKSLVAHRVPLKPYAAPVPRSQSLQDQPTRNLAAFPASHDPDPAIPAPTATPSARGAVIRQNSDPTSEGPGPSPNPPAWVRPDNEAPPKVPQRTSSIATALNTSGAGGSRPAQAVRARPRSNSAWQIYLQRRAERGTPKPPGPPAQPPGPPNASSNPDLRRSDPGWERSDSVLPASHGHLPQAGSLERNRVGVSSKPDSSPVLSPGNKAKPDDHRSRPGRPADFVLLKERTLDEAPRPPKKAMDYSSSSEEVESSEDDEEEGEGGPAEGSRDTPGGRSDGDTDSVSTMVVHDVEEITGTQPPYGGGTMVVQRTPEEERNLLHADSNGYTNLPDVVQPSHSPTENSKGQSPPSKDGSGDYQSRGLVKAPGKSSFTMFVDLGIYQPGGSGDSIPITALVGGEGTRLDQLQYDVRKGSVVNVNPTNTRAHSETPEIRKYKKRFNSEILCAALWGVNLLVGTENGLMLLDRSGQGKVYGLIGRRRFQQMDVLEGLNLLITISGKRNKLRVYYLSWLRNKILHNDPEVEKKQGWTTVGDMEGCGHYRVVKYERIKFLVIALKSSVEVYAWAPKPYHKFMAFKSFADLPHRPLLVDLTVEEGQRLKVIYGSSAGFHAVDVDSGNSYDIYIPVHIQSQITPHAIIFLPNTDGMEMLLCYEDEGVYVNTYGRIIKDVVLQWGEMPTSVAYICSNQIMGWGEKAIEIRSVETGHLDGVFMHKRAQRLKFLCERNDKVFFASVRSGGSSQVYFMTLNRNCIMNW
MKK1, sequence (Q02750 whole entry): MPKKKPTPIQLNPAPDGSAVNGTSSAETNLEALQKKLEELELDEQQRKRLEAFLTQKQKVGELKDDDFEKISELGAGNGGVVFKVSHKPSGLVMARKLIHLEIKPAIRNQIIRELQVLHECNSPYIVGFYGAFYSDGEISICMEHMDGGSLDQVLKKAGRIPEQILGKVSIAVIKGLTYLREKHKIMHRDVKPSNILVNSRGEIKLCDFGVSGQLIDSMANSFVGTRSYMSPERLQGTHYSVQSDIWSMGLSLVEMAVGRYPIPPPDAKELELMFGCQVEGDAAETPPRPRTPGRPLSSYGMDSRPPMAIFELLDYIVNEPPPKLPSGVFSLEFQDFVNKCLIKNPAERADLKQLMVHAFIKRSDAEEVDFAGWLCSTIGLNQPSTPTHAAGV
MARK4, sequence (Q96L34 whole entry): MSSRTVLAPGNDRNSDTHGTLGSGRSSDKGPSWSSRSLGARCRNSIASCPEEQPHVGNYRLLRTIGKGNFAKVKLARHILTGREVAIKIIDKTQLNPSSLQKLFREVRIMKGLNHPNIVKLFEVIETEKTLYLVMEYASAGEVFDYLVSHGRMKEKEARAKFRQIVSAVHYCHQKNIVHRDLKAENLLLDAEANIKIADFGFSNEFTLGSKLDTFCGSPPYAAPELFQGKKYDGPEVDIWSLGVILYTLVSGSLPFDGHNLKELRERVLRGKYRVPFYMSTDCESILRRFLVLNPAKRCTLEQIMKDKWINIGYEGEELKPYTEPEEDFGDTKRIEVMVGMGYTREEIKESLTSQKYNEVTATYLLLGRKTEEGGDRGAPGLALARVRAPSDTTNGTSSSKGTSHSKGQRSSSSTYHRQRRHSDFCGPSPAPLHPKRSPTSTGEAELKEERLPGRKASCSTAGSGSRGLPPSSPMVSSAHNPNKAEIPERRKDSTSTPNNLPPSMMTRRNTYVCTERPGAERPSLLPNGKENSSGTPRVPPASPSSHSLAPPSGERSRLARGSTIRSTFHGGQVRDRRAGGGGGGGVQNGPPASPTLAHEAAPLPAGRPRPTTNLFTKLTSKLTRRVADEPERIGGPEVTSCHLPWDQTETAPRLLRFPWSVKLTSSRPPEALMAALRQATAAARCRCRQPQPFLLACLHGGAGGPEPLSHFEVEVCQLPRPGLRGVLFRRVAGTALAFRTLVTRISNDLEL
PDK1, sequence (O15530 whole entry): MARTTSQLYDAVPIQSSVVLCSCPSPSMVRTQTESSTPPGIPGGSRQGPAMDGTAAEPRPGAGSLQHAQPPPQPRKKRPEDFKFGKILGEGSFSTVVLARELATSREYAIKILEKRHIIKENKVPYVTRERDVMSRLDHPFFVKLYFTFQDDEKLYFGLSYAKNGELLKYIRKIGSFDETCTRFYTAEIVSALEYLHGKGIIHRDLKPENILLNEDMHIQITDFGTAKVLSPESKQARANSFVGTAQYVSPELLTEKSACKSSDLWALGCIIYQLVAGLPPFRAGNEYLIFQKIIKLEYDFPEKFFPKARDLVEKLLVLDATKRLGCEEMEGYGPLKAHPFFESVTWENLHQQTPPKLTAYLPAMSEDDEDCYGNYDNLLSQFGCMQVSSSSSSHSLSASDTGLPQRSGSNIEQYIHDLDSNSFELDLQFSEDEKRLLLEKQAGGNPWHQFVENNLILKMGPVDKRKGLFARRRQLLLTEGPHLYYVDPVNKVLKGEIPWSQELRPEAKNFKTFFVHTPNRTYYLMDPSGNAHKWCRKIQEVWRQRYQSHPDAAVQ

Row | SMILES | half-life at 1 µM [1] [min] | fraction unbound at 4 h, 10 µM (Plasma protein binding) | Papp A→B at 1 h, 10 µM (Caco-2 cell permeability) [×10⁻⁶ cm/s] | efflux ratio at 1 h, 10 µM (Caco-2 cell permeability) | solubility at 2 h (Kinetic solubility) [µM] | chromatographic logD [2] | pIC50 (PI5P4Kα) | PI5P4Kβ pIC50 (PI5P4Kβ-WT) | pIC50 (PI5P4Kβ-WT; read-out: PI5P4Kβ IC50, new data) | remaining activity at 10 µM (MKK1) [%] | remaining activity at 10 µM (JNK1) [%] | remaining activity at 10 µM (JNK2) [%] | remaining activity at 10 µM (PDK1) [%] | remaining activity at 10 µM (MARK4) [%] | remaining activity at 10 µM (DYRK1A) [%] | remaining activity at 10 µM (HIPK1) [%] | remaining activity at 10 µM (MINK1) [%] | remaining activity at 10 µM (CSK) [%]
1 | FC(F)(F)c1ccccc1-c1nc(NCc2cccs2)c2ccccc2n1 [Compound 1, NIH-12848, reference compound] | 21 | < 0.01 | 6.4 | 0.9 | < 5 | 6.3 | < 4.52 | <4.6 | < 4.60 |  |  |  |  |  |  |  |  | 
2 | CC(C)c1ccccc1-c1nc(NCc2ccccn2)c2c(ccn2C)n1 [Compound 40] | 47 | 0.01 | 122 | 0.4 | 7 (≈ 2.5 µg/mL) | 4.5 | < 4.52 | <4.6 |  | 92 | 86 | 110 | 103 | 105 | 101 | 104 | 95 | 94
